Data: PubChem BioAssay AID1745844 (Carcinogenic Potency Database (CPDB), 2022)
Where “and” joins values, the source holds several entries; their conditions need not be identical. Equal values may be shown once. Calls of active or inactive are those of the source. How the calls were made is not given here.

System: rodent lifetime carcinogenesis bioassay, tumor incidence TD50
Assay: chronic cancer bioassays in animals – CPDB, compiled studies (AID 1745844)

`ClC=C(Cl)Cl` gave a TD50 (mouse, strain Swiss, males, inhaled, site: any site (literature study), lesion: several types, types named in the paper, dosed 78 weeks, study length 145 weeks) of 8070 mg/kg/day, a TD50 (mouse, strain Swiss, males, inhaled, site: liver, lesion: hepatoma, dosed 78 weeks, study length 145 weeks) of 3910 mg/kg/day and a TD50 (mouse, strain Swiss, males, inhaled, site: lung, lesion: one or several types, types not named, dosed 78 weeks, study length 145 weeks) of 10100 mg/kg/day. It also gave a TD50 (rat, strain ACI, females, by gavage, site: any site (literature study), lesion: several types, types named in the paper, dosed 103 weeks, study length 104 weeks) of 61700 mg/kg/day, a TD50 (rat, strain ACI, females, by gavage, site: kidney, lesion: adenocarcinoma, NOS + tubular-cell adenocarcinoma, dosed 103 weeks, study length 104 weeks) of 7800 mg/kg/day and a TD50 (rat, strain ACI, females, by gavage, site: kidney, lesion: adenocarcinoma, NOS + tubular-cell adenoma + tubular-cell adenocarcinoma, dosed 103 weeks, study length 104 weeks) of 3760 mg/kg/day. It also gave a TD50 (rat, strain ACI, males, by gavage, site: any site (literature study), lesion: several types, types named in the paper, dosed 103 weeks, study length 104 weeks) of 820 mg/kg/day, a TD50 (rat, strain ACI, males, by gavage, site: kidney, lesion: tubular-cell adenocarcinoma, dosed 103 weeks, study length 104 weeks) of 12000 mg/kg/day and a TD50 (rat, strain ACI, males, by gavage, site: liver, lesion: hepatocellular adenoma + hepatocellular carcinoma + neoplastic nodule, dosed 103 weeks, study length 104 weeks) of 9400 mg/kg/day. For the same molecule, the TD50 (rat, strain August, females, by gavage, site: kidney, lesion: tubular-cell adenoma + tubular-cell adenocarcinoma, dosed 103 weeks, study length 104 weeks) was 2240 mg/kg/day, the TD50 (rat, strain August, males, by gavage, site: kidney, lesion: tubular-cell adenocarcinoma, dosed 103 weeks, study length 104 weeks) was 10800 mg/kg/day and the TD50 (rat, strain August, males, by gavage, site: kidney, lesion: tubular-cell adenoma + tubular-cell adenocarcinoma, dosed 103 weeks, study length 104 weeks) was 3810 mg/kg/day. It also gave a TD50 (rat, strain August, males, by gavage, site: liver, lesion: hepatocellular adenoma + hepatocellular carcinoma + neoplastic nodule, dosed 103 weeks, study length 104 weeks) of 6440 mg/kg/day, a TD50 (rat, strain August, males, by gavage, site: subcutaneous tissue, lesion: sarcoma, NOS + sarcoma, NOS, dosed 103 weeks, study length 104 weeks) of 3730 mg/kg/day and a TD50 (rat, strain Charles River CD (Sprague-Dawley), females, inhaled, site: kidney, lesion: tubular-cell adenocarcinoma, dosed 104 weeks, study length 107 weeks) of 10700 mg/kg/day. For the same molecule, the TD50 (rat, strain Charles River CD (Sprague-Dawley), females, inhaled, site: liver, lesion: several types, types named in the paper, dosed 104 weeks, study length 107 weeks) was 12300 mg/kg/day, the TD50 (rat, strain Charles River CD (Sprague-Dawley), females, inhaled, site: mammary gland, lesion: fibroadenoma, dosed 104 weeks, study length 107 weeks) was 982 mg/kg/day and the TD50 (rat, strain Fischer 344, females, by gavage, site: any site (literature study), lesion: several types, types named in the paper, dosed 103 weeks, study length 103 weeks) was 5710 mg/kg/day (inactive). For the same molecule, the TD50 (rat, strain Fischer 344, females, by gavage, site: kidney, lesion: tubular-cell adenocarcinoma, dosed 103 weeks, study length 103 weeks) was 23000 mg/kg/day, the TD50 (rat, strain Fischer 344, females, by gavage, site: liver, lesion: hepatocellular adenoma + hepatocellular carcinoma + neoplastic nodule, dosed 103 weeks, study length 103 weeks) was 9980 mg/kg/day and the TD50 (rat, strain Fischer 344, males, by gavage, site: any site (literature study), lesion: several types, types named in the paper, dosed 103 weeks, study length 103 weeks) was 2240 mg/kg/day. The TD50 (rat, strain Fischer 344, males, by gavage, site: kidney, lesion: tubular-cell adenocarcinoma, dosed 103 weeks, study length 103 weeks) was 3920 mg/kg/day, the TD50 (rat, strain Fischer 344, males, by gavage, site: kidney, lesion: tubular-cell adenoma + tubular-cell adenocarcinoma, dosed 103 weeks, study length 103 weeks) was 2780 mg/kg/day and the TD50 (rat, strain Fischer 344, males, by gavage, site: liver, lesion: hepatocellular adenoma + hepatocellular carcinoma + neoplastic nodule, dosed 103 weeks, study length 103 weeks) was 12200 mg/kg/day. The TD50 (rat, strain Fischer 344, males, by gavage, site: peritoneum, lesion: mesothelioma, NOS + mesothelioma, malignant, dosed 103 weeks, study length 103 weeks) was 1490 mg/kg/day, the TD50 (rat, strain Fischer 344, males, by gavage, site: peritoneum, lesion: mesothelioma, malignant, dosed 103 weeks, study length 103 weeks) was 1490 mg/kg/day and the TD50 (rat, strain Han:WIST, females, inhaled, site: any site (literature study), lesion: benign tumor, dosed 78 weeks, study length 156 weeks) was 2120 mg/kg/day (inactive). The carcinogen call (rat, strain Han:WIST, females, inhaled, site: any site (literature study), lesion: malignant tumor, dosed 78 weeks, study length 156 weeks) was “negative (inactive)”, the TD50 (rat, strain Han:WIST, females, inhaled, site: kidney, lesion: tubular-cell adenoma, dosed 78 weeks, study length 156 weeks) was 5500 mg/kg/day (inactive) and the carcinogen call (rat, strain Han:WIST, females, inhaled, site: liver, lesion: hepatocellular adenoma, dosed 78 weeks, study length 156 weeks) was “negative (inactive)”. The carcinogen call (rat, strain Han:WIST, males, inhaled, site: any site (literature study), lesion: benign tumor, dosed 78 weeks, study length 156 weeks) was “negative (inactive)”, the TD50 (rat, strain Han:WIST, males, inhaled, site: any site (literature study), lesion: malignant tumor, dosed 78 weeks, study length 156 weeks) was 351 mg/kg/day (inactive) and the TD50 (rat, strain Han:WIST, males, inhaled, site: kidney, lesion: tubular-cell adenocarcinoma, dosed 78 weeks, study length 156 weeks) was 3850 mg/kg/day (inactive). For the same molecule, the TD50 (rat, strain Han:WIST, males, inhaled, site: kidney, lesion: tubular-cell adenoma, dosed 78 weeks, study length 156 weeks) was 10700 mg/kg/day (inactive), the carcinogen call (rat, strain Han:WIST, males, inhaled, site: liver, lesion: hepatocellular adenoma, dosed 78 weeks, study length 156 weeks) was “negative (inactive)” and the TD50 (rat, strain Marshall, females, by gavage, site: any site (literature study), lesion: several types, types named in the paper, dosed 103 weeks, study length 104 weeks) was 709 mg/kg/day. It also gave a TD50 (rat, strain Marshall, females, by gavage, site: kidney, lesion: tubular-cell adenocarcinoma, dosed 103 weeks, study length 104 weeks) of 4110 mg/kg/day, a TD50 (rat, strain Marshall, females, by gavage, site: kidney, lesion: tubular-cell adenoma + tubular-cell adenocarcinoma, dosed 103 weeks, study length 104 weeks) of 4370 mg/kg/day and a TD50 (rat, strain Marshall, males, by gavage, site: any site (literature study), lesion: several types, types named in the paper, dosed 103 weeks, study length 104 weeks) of 199 mg/kg/day. It also gave a TD50 (rat, strain Marshall, males, by gavage, site: kidney, lesion: tubular-cell adenocarcinoma, dosed 103 weeks, study length 104 weeks) of 8000 mg/kg/day, a TD50 (rat, strain Marshall, males, by gavage, site: kidney, lesion: tubular-cell adenoma + tubular-cell adenocarcinoma, dosed 103 weeks, study length 104 weeks) of 5710 mg/kg/day and a TD50 (rat, strain Marshall, males, by gavage, site: testis, lesion: interstitial-cell tumor + interstitial-cell tumor, malignant, dosed 103 weeks, study length 104 weeks) of 153 mg/kg/day. For the same molecule, the TD50 (rat, strain Marshall, males, by gavage, site: testis, lesion: interstitial-cell tumor, malignant, dosed 103 weeks, study length 104 weeks) was 6540 mg/kg/day, the TD50 (rat, strain Osborne-Mendel, females, by gavage, site: adrenal gland, lesion: cortical adenoma, dosed 103 weeks, study length 104 weeks) was 556 mg/kg/day and the TD50 (rat, strain Osborne-Mendel, females, by gavage, site: any site (literature study), lesion: several types, types named in the paper, dosed 78 weeks, study length 110 weeks) was 5620 mg/kg/day (inactive). The TD50 (rat, strain Osborne-Mendel, females, by gavage, site: any site (literature study), lesion: several types, types named in the paper, dosed 103 weeks, study length 104 weeks) was 372 mg/kg/day, the TD50 (rat, strain Osborne-Mendel, females, by gavage, site: kidney, lesion: tubular-cell adenoma, dosed 103 weeks, study length 104 weeks) was 10700 mg/kg/day and the TD50 (rat, strain Osborne-Mendel, females, by gavage, site: liver, lesion: hepatocellular adenoma + hepatocellular carcinoma + neoplastic nodule, dosed 103 weeks, study length 104 weeks) was 3500 mg/kg/day. The TD50 (rat, strain Osborne-Mendel, males, by gavage, site: any site (literature study), lesion: several types, types named in the paper, dosed 78 weeks, study length 110 weeks) was 16000 mg/kg/day, the TD50 (rat, strain Osborne-Mendel, males, by gavage, site: any site (literature study), lesion: several types, types named in the paper, dosed 103 weeks, study length 104 weeks) was 1490 mg/kg/day and the TD50 (rat, strain Osborne-Mendel, males, by gavage, site: kidney, lesion: tubular-cell adenocarcinoma, dosed 78 weeks, study length 110 weeks) was 7220 mg/kg/day. The TD50 (rat, strain Osborne-Mendel, males, by gavage, site: kidney, lesion: tubular-cell adenoma + tubular-cell adenocarcinoma, dosed 103 weeks, study length 104 weeks) was 628 mg/kg/day, the TD50 (rat, strain Osborne-Mendel, males, by gavage, site: kidney, lesion: tubular-cell adenoma, dosed 103 weeks, study length 104 weeks) was 628 mg/kg/day and the TD50 (rat, strain Osborne-Mendel, males, by gavage, site: liver, lesion: hepatocellular adenoma + hepatocellular carcinoma + neoplastic nodule, dosed 103 weeks, study length 104 weeks) was 8950 mg/kg/day. The TD50 (rat, strain Sprague-Dawley, females, inhaled, site: any site (literature study), lesion: several types, types named in the paper, dosed 104 weeks, study length 159 weeks) was 3890 mg/kg/day, the TD50 (rat, strain Sprague-Dawley, females, inhaled, site: kidney, lesion: several types, types named in the paper, dosed 104 weeks, study length 159 weeks) was 41300 mg/kg/day and the TD50 (rat, strain Sprague-Dawley, females, inhaled, site: kidney, lesion: tubular-cell adenocarcinoma, dosed 104 weeks, study length 159 weeks) was 43200 mg/kg/day. It also gave a TD50 (rat, strain Sprague-Dawley, females, inhaled, site: liver, lesion: angiosarcoma, dosed 104 weeks, study length 159 weeks) of 8010 mg/kg/day, a TD50 (rat, strain Sprague-Dawley, females, inhaled, site: liver, lesion: neoplastic nodule, dosed 104 weeks, study length 159 weeks) of 9680 mg/kg/day and a TD50 (rat, strain Sprague-Dawley, males, by gavage, site: all sites, lesion: leukemia, dosed 52 weeks, study length 140 weeks) of 428 mg/kg/day. The TD50 (rat, strain Sprague-Dawley, males, by gavage, site: any site (literature study), lesion: malignant tumor, dosed 52 weeks, study length 140 weeks) was 818 mg/kg/day, the TD50 (rat, strain Sprague-Dawley, males, inhaled, site: all sites, lesion: leukemia, dosed 104 weeks, study length 159 weeks) was 5930 mg/kg/day and 2810 mg/kg/day and the TD50 (rat, strain Sprague-Dawley, males, inhaled, site: kidney, lesion: tubular-cell adenocarcinoma, dosed 104 weeks, study length 159 weeks) was 9490 mg/kg/day and 12400 mg/kg/day. For the same molecule, the TD50 (rat, strain Sprague-Dawley, males, inhaled, site: kidney, lesion: tubular-cell adenoma, dosed 104 weeks, study length 159 weeks) was 29200 mg/kg/day, the TD50 (rat, strain Sprague-Dawley, males, inhaled, site: liver, lesion: neoplastic nodule, dosed 104 weeks, study length 159 weeks) was 30700 mg/kg/day and the TD50 (rat, strain Sprague-Dawley, males, inhaled, site: mammary gland, lesion: one or several types, types not named, dosed 104 weeks, study length 159 weeks) was 120 mg/kg/day. For the same molecule, the TD50 (rat, strain Sprague-Dawley, males, inhaled, site: testis, lesion: Leydig-cell tumor, dosed 104 weeks, study length 159 weeks) was 557 mg/kg/day and 835 mg/kg/day.
